One data set has as its system HCMV. Briefly: HCMV/HFF antiviral assay. In kind it is cell-based. The conditions noted are these: Human betaherpesvirus 5, HFF.
A short description of data set [1]: in vitro. The conditions noted are these: human, hep2 cells.
The next data set has as its system RSV A2. Briefly: microbe, parasite or virus in culture. In kind it is cell-based. The conditions noted are these: human respiratory syncytial virus, HEp-2, 72 h, read-out: RSV A2 / Hep2 EC50.
The subject of another data set is DENV-2. Briefly: microbe, parasite or virus in culture. In kind it is cell-based, DENV-2 16681. The conditions noted are these: Dengue virus, DENV2, HepG2, 24 h, read-out: DENV-2 / HepG2 EC50.
Data set [2] is described as follows: in vitro. The conditions noted are these: human, hepg2 cells.
Another data set has as its system HRV 14. Briefly: microbe, parasite or virus in culture. The conditions noted are these: Rhinovirus B, H1-HeLa, 48 h, read-out: HRV / H1 HeLa B 14 EC50. In kind it is cell-based, Human Rhinovirus 14 strain 1059.
A short description of the next data set: Cytotoxicity, HFF. In kind it is cell-based. The conditions noted are these: human, hff cells; read-out: HCMV/HFF CC50.
Another data set concerns SARS-CoV-2. Briefly: microbe, parasite or virus in culture. In kind it is cell-based, SARS-CoV-2 strain USA-WA1/2020. The conditions noted are these: Severe acute respiratory syndrome coronavirus 2, HeLa-ACE2, 24 h, read-out: SARS-CoV-2 / HeLa-ACE2 EC50.
Data set [3] in a line: in vitro. The conditions noted are these: human, hela-ace2 cells.
A short description of data set [4]: in vitro. The conditions noted are these: human, h1 hela cells.
The next data set has as its system HRV 16. Briefly: microbe, parasite or virus in culture. The conditions noted are these: Rhinovirus A, H1-HeLa, 48 h, read-out: HRV / H1 HeLa A16 EC50. The format is cell-based, Human Rhinovirus 16 strain 11757.

On to `Nc1ncnc2c1ccn2[C@@H]1O[C@](F)(CO)[C@@H](O)[C@]1(F)Cl` [Example 6, (2S,3R,4S,5R)-5-(4-amino-7H-pyrrolo[2,3-d]pyrimidin-7-yl)-4-chloro-2,4-difluoro-2-(hydroxymethyl)tetrahydrofuran-3-ol], for which the EC50 in the data set on HCMV, in the data set with RSV A2, with DENV-2, in the data set on HRV 14 and in the data set with SARS-CoV-2 was above 10 µM each time. The CC50 was above 99 µM in the data set “in vitro [1]”; above 99 µM in “Cytotoxicity, HFF”; above 99 µM in the data set “in vitro [4]”. The same molecule yielded a CC50 at 72 h in the data set “in vitro [2]” above 99 µM. The molecule further displayed a CC50 at 24 h in “in vitro [3]” above 99 µM.
Regarding `[N-]=[N+]=N[C@]1(CO)O[C@@H](n2ccc3c(N)ncnc32)[C@@](F)(Cl)[C@@H]1O` [Example 7, (2R,3R,4S,5R)-5-(4-amino-7H-pyrrolo[2,3-d]pyrimidin-7-yl)-2-azido-4-chloro-4-fluoro-2-(hydroxymethyl)tetrahydrofuran-3-ol], the EC50 in the data set on HCMV, in the data set with RSV A2, with DENV-2, in the data set on HRV 14 and in the data set on SARS-CoV-2 was above 10 µM throughout. In addition, the CC50 is above 99 µM in the data set “in vitro [1]”; above 99 µM in the data set “Cytotoxicity, HFF”; above 99 µM in the data set “in vitro [4]”. The molecule further had a CC50 at 72 h in the data set “in vitro [2]” above 99 µM. For the same molecule, in “in vitro [3]”, the CC50 at 24 h was above 99 µM.
In the case of `NC(=O)c1cc([C@@H]2O[C@](F)(COC(=O)c3ccccc3)[C@@H](O)[C@H]2O)n2ncnc(N)c12` [Example 34, ((2S,3S,4R,5S)-5-(4-amino-5-carbamoylpyrrolo[2,1-f][1,2,4]triazin-7-yl)-2-fluoro-3,4-dihydroxytetrahydrofuran-2-yl)methyl benzoate], the CC50 in the data set “in vitro [1]” is below 1 µM; in the data set “in vitro [4]”, 1 to 10 µM. Moreover, the EC50 in the data set with RSV A2 is 0.1 to 1 µM; in the data set on DENV-2, 1 to 10 µM; in the data set with HRV 14, above 10 µM; with SARS-CoV-2 it was above 10 µM; in the data set on HRV 16 it was above 10 µM. The same molecule registered a CC50 at 72 h in “in vitro [2]” below 1 µM. Further, the CC50 at 24 h in the data set “in vitro [3]” was in the range of 1 to 10 µM.
Consider `COc1ncnc2c1ccn2[C@@H]1O[C@](F)(CO)[C@@H](O)[C@H]1O` [Example 41, (2S,3S,4R,5R)-2-fluoro-2-(hydroxymethyl)-5-(4-methoxy-7H-pyrrolo[2,3-d]pyrimidin-7-yl)tetrahydrofuran-3,4-diol], for which the CC50 in the data set “in vitro [1]” and in the data set “in vitro [4]” was 10 to 99 µM each time. For the same molecule, the EC50 in the data set on RSV A2, in the data set with DENV-2, in the data set with HRV 14, in the data set on SARS-CoV-2 and in the data set on HRV 16 was above 10 µM throughout. Also, the CC50 at 72 h in the data set “in vitro [2]” was in the range of 10 to 99 µM. The molecule also yielded a CC50 at 24 h in “in vitro [3]” of 10 to 99 µM.
`Nc1nc(Cl)nc2c1ncn2[C@@H]1O[C@](F)(CO)[C@@H](O)[C@H]1O` [Example 43, (2S,3S,4R,5R)-5-(6-amino-2-chloro-9H-purin-9-yl)-2-fluoro-2-(hydroxymethyl)tetrahydrofuran-3,4-diol]: the CC50 in “in vitro [1]” is above 99 µM; in the data set “in vitro [4]”, 10 to 99 µM. Also, the EC50 with RSV A2, with DENV-2, with HRV 14, with SARS-CoV-2 and in the data set with HRV 16 was above 10 µM in each case. Besides, in “in vitro [2]”, the CC50 at 72 h fell in the range of 10 to 99 µM. The CC50 at 24 h in “in vitro [3]” was above 99 µM.
`C#C[C@]1(O)[C@H](n2ccc(N)nc2=O)O[C@](F)(CO)[C@H]1O` [Example 44, 4-amino-1-((2R,3R,4S,5S)-3-ethynyl-5-fluoro-3,4-dihydroxy-5-(hydroxymethyl)tetrahydrofuran-2-yl)pyrimidin-2(1H)-one]: the CC50 in “in vitro [1]” and in the data set “in vitro [4]” was 10 to 99 µM each time. Moreover, the EC50 in the data set on RSV A2, in the data set with DENV-2, in the data set with HRV 14, in the data set with SARS-CoV-2 and with HRV 16 was above 10 µM in each case. In the data set “in vitro [2]”, this molecule showed a CC50 at 72 h above 99 µM. In the data set “in vitro [3]”, this molecule yielded a CC50 at 24 h above 99 µM.
Regarding `CC(=O)O[C@H]1[C@H](n2ncc(=O)[nH]c2=O)O[C@](F)(COC(=O)c2ccccc2)[C@H]1OC(C)=O` [Example 45, (2S,3S,4R,5R)-2-((benzoyloxy)methyl)-5-(3,5-dioxo-4,5-dihydro-1,2,4-triazin-2(3H)-yl)-2-fluorotetrahydrofuran-3,4-diyl diacetate], the CC50 in “in vitro [1]” and in the data set “in vitro [4]” was above 99 µM each time. In addition, the EC50 with RSV A2, in the data set with DENV-2, in the data set on HRV 14, in the data set on SARS-CoV-2 and in the data set with HRV 16 was above 10 µM in each case. For the same molecule, the CC50 at 72 h in the data set “in vitro [2]” was above 99 µM. In “in vitro [3]”, this molecule displayed a CC50 at 24 h above 99 µM.
As to `N#Cc1ncnc2c1ccn2[C@@H]1O[C@](F)(COC(=O)c2ccccc2)[C@@H](O)[C@H]1OC(=O)c1ccccc1` [Example 50, ((2S,3S,4R,5R)-4-(benzoyloxy)-5-(4-cyano-7H-pyrrolo[2,3-d]pyrimidin-7-yl)-2-fluoro-3-hydroxytetrahydrofuran-2-yl)methyl benzoate], the CC50 in “in vitro [1]” and in the data set “in vitro [4]” was 10 to 99 µM throughout. For the same molecule, the EC50 in the data set on RSV A2 was above 10 µM; in the data set with DENV-2 it was 0.1 to 1 µM; in the data set on HRV 14, above 10 µM; with SARS-CoV-2, above 10 µM; in the data set with HRV 16 it was above 10 µM. The CC50 at 72 h in “in vitro [2]” lay within 1 to 10 µM. Besides, the CC50 at 24 h in “in vitro [3]” lay within 10 to 99 µM.
As to `CNc1nc(N)nc2c1ccn2[C@@H]1O[C@](F)(COC(=O)c2ccccc2)[C@@H](O)[C@H]1O` [Example 56, ((2S,3S,4R,5R)-5-(2-amino-4-(methylamino)-7H-pyrrolo[2,3-d]pyrimidin-7-yl)-2-fluoro-3,4-dihydroxytetrahydrofuran-2-yl)methyl benzoate], the CC50 in “in vitro [1]” and in “in vitro [4]” was above 99 µM throughout. In addition, the EC50 in the data set on RSV A2, with DENV-2, in the data set on HRV 14, with SARS-CoV-2 and with HRV 16 was above 10 µM throughout. The same molecule showed a CC50 at 72 h in “in vitro [2]” above 99 µM. This molecule also displayed a CC50 at 24 h in “in vitro [3]” above 99 µM.
As to `CCOc1nc(N)nc2c1ncn2[C@@H]1O[C@](F)(CO)[C@@H](O)[C@@]1(C)Cl` [Example 63, (2S,3R,4R,5R)-5-(2-amino-6-ethoxy-9H-purin-9-yl)-4-chloro-2-fluoro-2-(hydroxymethyl)-4-methyltetrahydrofuran-3-ol], the EC50 in the data set with HCMV, in the data set with RSV A2, in the data set on DENV-2, in the data set on HRV 14 and in the data set on SARS-CoV-2 was above 10 µM each time. The CC50 in “in vitro [1]” and in the data set “in vitro [4]” was above 99 µM each time. In “in vitro [2]”, this molecule returned a CC50 at 72 h of 10 to 99 µM. Also, the CC50 at 24 h in “in vitro [3]” is above 99 µM.
Regarding `CCOc1nc(N)nc2c1ncn2[C@@H]1O[C@](F)(CO)[C@@H](O)[C@]1(F)Cl` [Example 66, (2S,3R,4S,5R)-5-(2-amino-6-ethoxy-9H-purin-9-yl)-4-chloro-2,4-difluoro-2-(hydroxymethyl)tetrahydrofuran-3-ol], the EC50 with HCMV, with RSV A2, in the data set with DENV-2, with HRV 14 and in the data set on SARS-CoV-2 was above 10 µM throughout. The CC50 in “in vitro [1]” and in “in vitro [4]” was above 99 µM throughout. For the same molecule, the CC50 at 72 h in the data set “in vitro [2]” is above 99 µM. Besides, the CC50 at 24 h in “in vitro [3]” is above 99 µM.
In the case of `CCOc1nc(N)nc2c1ncn2[C@@H]1O[C@](F)(COP(=O)(N[C@@H](C)C(=O)OC(C)C)Oc2ccccc2)[C@@H](O)C1(F)F` (stereo partly drawn) [Example 69, isopropyl ((((2S,3R,5R)-5-(2-amino-6-ethoxy-9H-purin-9-yl)-2,4,4-trifluoro-3-hydroxytetrahydrofuran-2-yl)methoxy)(phenoxy)phosphoryl)-L-alaninate], the EC50 with HCMV was above 10 µM; in the data set with RSV A2, above 10 µM; in the data set on DENV-2, 1 to 10 µM; in the data set on HRV 14, above 10 µM; in the data set with SARS-CoV-2, above 10 µM. Moreover, the CC50 in the data set “in vitro [1]” and in “in vitro [4]” was 10 to 99 µM throughout. The molecule also displayed a CC50 at 72 h in the data set “in vitro [2]” of 10 to 99 µM. The molecule also registered a CC50 at 24 h in “in vitro [3]” of 10 to 99 µM.
Consider `Nc1nc2c(ncn2[C@@H]2O[C@](F)(CO)[C@@H](O)C2(F)F)c(=O)[nH]1` [Example 71, 2-amino-9-((2R,4R,5S)-3,3,5-trifluoro-4-hydroxy-5-(hydroxymethyl)tetrahydrofuran-2-yl)-1,9-dihydro-6H-purin-6-one], for which the EC50 with HCMV, in the data set on RSV A2, in the data set on DENV-2, in the data set on HRV 14 and in the data set on SARS-CoV-2 was above 10 µM each time. The CC50 in the data set “in vitro [1]” and in “in vitro [4]” was above 99 µM in each case. In addition, in “in vitro [2]”, the CC50 at 72 h was above 99 µM. The CC50 at 24 h in “in vitro [3]” is above 99 µM.
